# Assay results taken from EP0378317A2, “Microbial transformation product of L-679,934” (Merck & Co., Inc., priority 1989, dated 1990).
# Entries after “also recorded” stand apart in the source; their conditions may differ. Where two headings read alike, the source gives them in different places.
# Experiments:
# mouse T lymphocytes = test: T-cell proliferation assay (ionomycin plus PMA induced T-cell stimulation, tritiated thymidine uptake); assay type: cell-based; details: for IC50: read-out: IC₅₀
# Experimental: The principle of this assay is to measure the proliferation of mouse T lymphocytes stimulated with the combination of ionomycin plus PMA. A positive sample in this assay will inhibit T-cell proliferation, as indicated by reduced tritiated thymidine uptake. […] Cells were pelleted by centrifugation at 1500 rpm for 8 minutes. Contaminating red cells were removed by treating the pellet with ammonium chloride lysing buffer (GIBCO) for 2 minutes at 4°C. Cold medium was added and cells were again centrifuged at 1500 rpm for 8 minutes. T lymphocytes were then isolated by separation of the cell suspension on nylon wool columns as follows: Nylon wool columns were prepared by packing approximately 4 grams of washed and dried nylon wool into 20 ml plastic syringes. The columns were sterilized by autoclaving at 250°F for 30 minutes. Nylon wool columns were wetted with warm (37°C) culture medium and rinsed with the same medium. Washed spleen cells resuspended in warm medium were slowly applied to the nylon wool. The columns were then incubated in an upright position at 37°C for 1 hour. Non-adherent T lymphocytes were eluted from the columns with warm culture medium and the cell suspensions were spun as above. […] The cell suspension was immediately distributed into 96 well flat-bottom microculture plates (Costar) at 200 µl/well. […] The proliferation of T lymphocytes was assessed by measurement of tritiated thymidine incorporation. After 44 hours of culturing, the cells were pulse-labelled with 2 µCi/well of tritiated thymidine (NEN, Cambridge, MA). After another 4 hours of incubation, cultures were harvested on glass fiber filters using a multiple sample harvester. Radioactivity of filter discs corresponding to individual wells was measured by standard liquid scintillation counting methods (Betacounter). Mean counts per minute of replicate wells were calculated and the results expressed as percent inhibition of tritiated thymidine uptake (proliferation) as follows: [formula]
# [1] = Physical characteristics of the fermentation product; assay type: physicochemical; details: methanol
# Description: White amorphous powder • 2. […] Molecular weight of 789, as determined by FAB mass spectroscopy and is consistent with the assigned molecular structure in Figure 1.
Solubility [1],Compound,"inhibition at 0.01 µg/mL (mouse T lymphocytes; Mus musculus, T-lymphocyte, 48 h)","IC50 (mouse T lymphocytes; Mus musculus, T-lymphocyte, inhibition of T-cell proliferation, this experiment, same value in molar terms)","IC50 (mouse T lymphocytes; Mus musculus, T-lymphocyte, inhibition of T-cell proliferation, this experiment)","IC50 (mouse T lymphocytes; Mus musculus, T-lymphocyte, range generally found)","inhibition at 0.00058 µg/mL (mouse T lymphocytes; Mus musculus, T-lymphocyte, L-683,519 0.58 ng/ml, harvest at 48 hours)","inhibition at 0.00087 µg/mL (mouse T lymphocytes; Mus musculus, T-lymphocyte, L-683,519 0.87 ng/ml, harvest at 48 hours)","inhibition at 0.0013 µg/mL (mouse T lymphocytes; Mus musculus, T-lymphocyte, L-683,519 1.3 ng/ml, harvest at 48 hours)","inhibition at 0.0019 µg/mL (mouse T lymphocytes; Mus musculus, T-lymphocyte, L-683,519 1.9 ng/ml, harvest at 48 hours)","inhibition at 0.0029 µg/mL (mouse T lymphocytes; Mus musculus, T-lymphocyte, L-683,519 2.9 ng/ml, harvest at 48 hours)","inhibition at 0.0044 µg/mL (mouse T lymphocytes; Mus musculus, T-lymphocyte, L-683,519 4.4 ng/ml, harvest at 48 hours)","inhibition at 0.0066 µg/mL (mouse T lymphocytes; Mus musculus, T-lymphocyte, L-683,519 6.6 ng/ml, harvest at 48 hours)","inhibition at 0.0099 µg/mL (mouse T lymphocytes; Mus musculus, T-lymphocyte, L-683,519 9.9 ng/ml, harvest at 48 hours)","inhibition at 0.015 µg/mL (mouse T lymphocytes; Mus musculus, T-lymphocyte, L-683,519 15.0 ng/ml, harvest at 48 hours)","inhibition at 0.022 µg/mL (mouse T lymphocytes; Mus musculus, T-lymphocyte, L-683,519 22.0 ng/ml, harvest at 48 hours)","inhibition at 0.033 µg/mL (mouse T lymphocytes; Mus musculus, T-lymphocyte, L-683,519 33.0 ng/ml, harvest at 48 hours)","inhibition at 0.05 µg/mL (mouse T lymphocytes; Mus musculus, T-lymphocyte, L-683,519 50.0 ng/ml, ionomycin 250 ng/ml + PMA 10 ng/ml, ³H-thymidine pulse 4 hours, harvest at 48 hours)",Inhibition of proliferation after addition of IL-2 (mouse T lymphocytes; addition of 50 units/ml. of recombinant human IL-2),inhibition of T-cell activation (immunosuppressive activity) (mouse T lymphocytes; result in words)
–,"C=CC[C@@H]1/C=C(\C)C[C@H](C)C[C@H](OC)[C@H]2O[C@@](O)(C(=O)C(=O)N3CCCC[C@H]3C(=O)O[C@H](/C(C)=C/[C@@H]3CC[C@@H](O)[C@H](OC)C3)[C@H](C)[C@@H](O)CC1=O)[C@H](C)C[C@@H]2OC [L-679,934]",99%,–,–,–,–,–,–,–,–,–,–,–,–,–,–,–,–,–
Solubility in methanol,"C=CCC1C=C(C)CC(C)CC(OC)C(O)C2CC(C)C(O)(O2)C(=O)C(=O)N2CCCCC2C(=O)OC(C(C)=CC2CCC(O)C(OC)C2)C(C)C(O)CC1=O [L-683,519]",–,2.2 nM,1.7 ng/mL,2 to 4 nM,0%,0%,30%,57%,81%,93%,97%,99%,99%,99%,99%,99%,4. Inhibition of proliferation was reversed by the addition of 50 units/ml. of recombinant human IL-2.,positive inhibition of T-cell activation; also recorded: positive immunosuppressive activity
